“Also recorded” adds a separate entry of the source.
How the values were obtained:
Type in all cases: cell-based, human
[1] = tested on: neutrophil adhesion to the endothelial monolayer; assay: LTB4 induced neutrophil adhesion to the endothelial monolayer; conditions: data not shown
Experimental: Turning now to FIG. 1, FIG. 1 graphically depicts neutrophil adhesion to and migration through human microvascular endothelial cell monolayers (HMECs) in a two-compartment system upon administration of an LTB4 gradient in the lower chamber over time. HMECs were plated on porous 8 μm (micron) transwell two-chamber inserts and allowed to reach confluency for migration assays. For the adhesion assay, HMECs were plated on 48-well plates. 100 nM LTB4 and 500,000 neutrophils were added to the upper compartment to initiate adhesion, while 500,000 neutrophils were added to the upper compartment and LTB4 to the lower compartment to initiate migration. Both neutrophil adhesion and migration were measured over 3 h and expressed as % change in adhesion and the fraction of migrated cells in chemoattractant stimulated experiments vs. controls which had no chemoattractant added. […]
Confluent HMEC monolayers were plated on 48-well plates for adhesion studies, transwells for migration studies, and pretreated with a variety of pharmacological inhibitors and activators for 1 hour. […] For adhesion assays, LTB4 was added along with 500,000 neutrophils and allowed to adhere for 1 h (time of max, adhesion as determined in FIG. 1). […] The data are shown as % change in migration and adhesion as assessed by MPO assay. All values are expressed as means+SE. […]

[2] = tested on: neutrophil migration across confluent HMEC monolayers; assay: TNF-α induced neutrophil migration across HMEC monolayers; conditions: HMECs; 24 h TNF-α 10 or 20 ng/ml; 100 nM, 1 h pretreatment
Experimental: FIG. 4 graphically depicts the effect of PMA on TNF-α induced neutrophil migration.
Turning now to FIG. 5, FIG. 5 graphically depicts the effect of Bryostatin-1 on TNF-α induced neutrophil migration.
Migration Assays: At confluency HMECs were treated for 1 h at 37° C. with Bryostatin-1 (10 nM, 100 nM) in MCDB-131 media or MCDB-131 media alone. Inserts were washed three times with Hank's Balanced Salt Solution (HBSS) (to eliminate drug effects on the neutrophils) and placed in a new plate containing either 500 μL 100 nM LTB4, or HBSS alone for control. 500 μL HBSS was then added to the top well and spiked with 500,000 neutrophils. For TNF-α experiments, HMECs were left in 20 ng/ml TNF-α in MCDB-131 for 24 h TNF-α was removed and HMECs washed three times. […] Migration was stopped by removing the inserts and migration was measured using the myeloperoxidase (MPO) assay.
Myeloperoxidase Assay: Neutrophil migration was measured using myeloperoxidase (MPO) analysis. […] The supernatant was removed, and MPO activity was measured using TMB/peroxide as chromogen. The reaction was stopped with sulfuric acid and absorbance was read at 450 nm using a microplate reader. […] Data was expressed as “% neutrophil migration”, which allowed cumulative statistical analysis to be done and account for unpreventable batch-to-batch variations.

[3] = tested on: PKC-ε siRNA nucleofected HUVEC; assay: LTB4 mediated neutrophil migration across PKC-ε siRNA nucleofected HUVEC; conditions: 1 h pretreatment; PKC-ε knockdown
Source text: Because studies in FIG. 8 could not discriminate between PKC-δ and […] isoforms mediating the effect of Bryostatin-1, we knocked down individual isoforms using siRNA technology. In order to verify that we could knock down particular isoforms of PKC, specifically PKC-8 and PKC-ε isoforms in HUVEC, siRNA which selectively bind to and eliminate human PKC-8 and PKC-ε mRNAs were nucleofected into HUVEC prior to migration studies. […] HUVEC cells treated using these approaches were then subjected to chemotaxis studies with Bryostatin-1 to elucidate the mechanism of Bryostatin-1 mediated inhibition of LTB4 induced PMN migration.
Neutrophil Transendothelial Migration (TEM) Restoration Studies: HUVECs were pretreated with Go-6983 (1, 10, 100 nM), or Go-6976 (1, 10,100 nM) for 30 minutes, then spiked with 100 nM Bryostatin-1 for 1 hour. […] Migration was stopped by removing the inserts and migration was measured using the MPO assay.
Myeloperoxidase Assay: Neutrophil migration was measured using myeloperoxidase (MPO) analysis. […] The supernatant was removed, and MPO activity was measured using TMB/peroxide as chromogen. The reaction was stopped with sulfuric acid and absorbance was read at 450 nm using a microplate reader. […] Data was expressed as “% neutrophil migration”, which allowed cumulative statistical analysis to be done and account for unpreventable batch-to-batch variations. […]

HUVEC = assay: Alamar blue endothelial viability assay, HUVEC; conditions: for HUVEC viability at 48 h: 48 h after a single 1 h 100 nM treatment; for HUVEC viability at 1 and 24 h: single 1 h 100 nM treatment, 1, 24 h
Experimental: Viability Assay. The Alamar blue assay was used to determine endothelial viability after pharmacological intervention. Alamar blue contains a REDOX indicator that results in a color change upon chemical reduction by cellular metabolic activity. Endothelial cells were treated with Bryostatin-1 (100 nM) for 1 h and washed three times with HBSS. Alamar blue (10%) in media was added for 2.5 h at T=0, 24, or 48 hours after drug treatment and the ratio of absorbances (570-600 nm) was measured to determine metabolic activity.

Compound	effect on LTB4 induced adhesion to the endothelial monolayer [1]	effect on TNF-α induced neutrophil TEM (Type II migration) [2]	effect on LTB4 mediated neutrophil migration in PKC-ε siRNA nucleofected HUVEC [3]	HUVEC viability at 48 h (HUVEC)	HUVEC viability at 1 and 24 h (HUVEC)
CCC/C=C/C=C/C(=O)O[C@H]1/C(=C/C(=O)OC)C[C@H]2C[C@H]([C@@H](C)O)OC(=O)C[C@H](O)C[C@@H]3C[C@H](OC(C)=O)C(C)(C)[C@](O)(C[C@@H]4C/C(=C/C(=O)OC)C[C@H](/C=C/C(C)(C)[C@]1(O)O2)O4)O3 [Bryostatin-1]	Neither PMA, nor Bryostatin-1 reduced LTB4 induced adhesion	attenuated Type II migration; also recorded: totally attenuated	did not restore LTB4 induced migration; also recorded: still suppresses migration	no effect	no effect
CCCCCCCCCCCCCC(=O)O[C@@H]1[C@@H](C)[C@@]2(O)[C@@H](C=C(CO)C[C@]3(O)C(=O)C(C)=C[C@@H]23)[C@@H]2C(C)(C)[C@]12OC(C)=O [PMA, phorbol myristate acetate]	Neither PMA, nor Bryostatin-1 reduced LTB4 induced adhesion	attenuated Type II migration; also recorded: totally attenuated	did not restore LTB4 induced migration	slight but significant reduction in viability	no effect
